No end group written: not given here.
B1: HD-5: α-defensin Human Defensin 5 (peptide, UniProt Q01523 20-94, looked up)
Defensin alpha 5: ESLQERADEATTQKQSGEDNQDLAISFAGNGLSALRTSGSQARATCYCRTGRCATRESLSGVCEISGRLYRLCCR
modifications: Defensin-5

Key:
[1] = system: Staphylococcus aureus ATCC 29213; assay: vCC antibacterial assay, S. aureus; format: cell-based; details: 30 minutes exposure, 500 to 1.95 μM
Protocol: (§1) The inventors have now tested the bacterial killing capacity of the identified compounds. The antibacterial activity was determined using the vCC assay as discussed in Ericksen, B., Wu, Z., Lu, W. and Lehrer, R. I. (2005), “Antibacterial activity and specificity of the six human {alpha}-defensins. Antimicrob Agents” Chemother 49, 269-75.). All compounds were tested initially for killing of Staphylococcus aureus ATCC 29213. All compounds were dissolved in DiMethylSulfylOxide (DMSO) and exposed to bacteria for 30 minutes in concentrations ranging from 500 to 1.95 μM. Compounds effectively killing S. aureus were subsequently tested against E. coli ATCC 25922 to assay for strain-selectivity.

[2] = Surface Plasmon Resonance binding of compounds to immobilized 3-Lipid II; details: SPR, FIG. 5
Protocol: The present inventors examined if the identified compounds themselves directly interact with Lipid II, which would be expected if they mimic the binding of HNP-1. Binding of compounds was tested directly using Surface Plasmon Resonance with 3-Lipid II immobilized on the chip surface (FIG. 5).

[3] = system: intestinal epithelial cell line Caco-2; assay: Caco-2 cell viability, MTT assay; format: cell-based; details: Caco-2, 24 h
Protocol: Caco-2 cells were seeded at 2. 10^5 cells/ml and exposed to compounds ranging in concentration from 500 to 3.7125 μM. Cell viability was determined after 24 h by the MTT assay and is expressed as a percentage of the viability of untreated cells.

[4] = system: E. coli ATCC 25922; assay: vCC antibacterial assay, E. coli (strain-selectivity); format: cell-based; details: 30 minutes exposure, 500 to 1.95 μM
Protocol: as §1

[5] = ANTS/DPX leakage assay from large unilamellar vesicles; details: POPG LUVs, panel of six human α-defensins, FIG. 1
Protocol: Large unilamellar vesicles (LUVs) with the low molecular weight fluorophore/quencher pair (ANTS/DPX) encapsulated were prepared using the standard extrusion method. Specifically, phospholipids were dissolved in chloroform at a desired molar ratio, dried as a film by solvent evaporation. After removal of residual solvent, the lipid film was hydrated in the fluorescent solution containing 5 mM HEPES, 12.5 mM ANTS, 45 mM DPX, and 20 mM NaCl, pH 7.0, freeze-thawed for 10 cycles and extruded 10 times through 0.4-μm polycarbonate membranes. LUVs were separated from unencapsulated materials by gel filtration chromatography using a Sepharose CL-4B column eluted with 5 mM HEPES, 100 mM NaCl, pH 7.4 (high-salt). For leakage assays in a low-salt buffer, purified vesicles were further diluted with 5 mM HEPES containing 10 mM NaCl, pH 7.4.
Leakage of ANTS from LUVs, monitored on a LS-55 Perkin Elmer luminescence spectrometer, was characterized by an increase in fluorescence, which was quenched by DPX when encapsulated together inside liposomes (Ellens, H., et al., 1985, “H+- and Ca2+-induced fusion and destabilization of liposomes,” Biochemistry 24:3099-3106). 270 μl ANTS/DPX-encapsulated LUVs (in either high-salt or low-salt buffers) were added to each well of a 96-well plate to a final lipid concentration of 600 μM. 30 μl H2O was added to the first well of each row as a blank, and 30 μl 2.5% (v/v) Triton X-100 to the last (twelfth) well as the control for 100% leakage. Upon addition of 30 μl of a twofold dilution series of defensin, the fluorescence signal was recorded at 515 nm with an excitation wavelength of 353 nm, 10 nm bandwidths and a 390 nm cut-off filter in the emission path. Percent leakage is expressed as: % leakage=((Ft−F0)/(F100−F0))×100 where Ft is the fluorescence determined at different time points after addition of defensin, F0 is the background fluorescence of the “blank” cells, and F100 is the fluorescence of the control cells containing 0.25% Triton X-100. Lipid II Purification
Defensins are believed to kill bacteria by permeabilizing the membrane, causing leakage of intracellular content and eventually cell lysis and death. The present inventors tested the ability of six human α-defensins to induce leakage of fluorophores encapsulated in LUVs (See FIG. 1). […] (A) At high salt concentration (5 mM HEPES, 100 mM NaCl, pH 7.4). (B) At low salt concentration (5 mM HEPES, 10 mM NaCl, pH 7.4). LUVs were 250 nm in diameter and 600 μM (phospholipids) in concentration.
(A) Effects of surface charge on HNP1-induced leakage from LUVs of four different compositions: POPC (circle, surface charge=0), POPC/POPG=3:2 (square, surface charge=−0.4), POPC/POPG=2:3 (triangle, surface charge=−0.6), and POPG (diamond, surface charge=−1). (B) LUV (POPG:DPPC 1:1) leakage induced by L-HNP1 (circles) or D-HNP1 (squares). A two-fold dilution series of HNP1 peptides from 0.19 to 100 μg/ml was incubated with 600 μM LUVs for one hour before readings were taken. Error bars indicate the standard error in triplicate experiments.

[6] = system: S. aureus; details: literature (Ericksen 2005; Wei 2009); cited from earlier work

Molecule	killing of S. aureus [1]	binding to 3-Lipid II immobilized on the chip surface [2]	cytotoxicity [3]	bactericidal activity against E. coli [4]	membrane activity (leakage of ANTS-DPX from POPG LUVs) [5]	bactericidal activity against S. aureus / Gram-positive bacteria [6]
3-ethyl-5-methyl-4-phenyl-2-[3-(1,3,3-trimethyl-1,3-dihydro-2H-indol-2-ylidene)prop-1-en-1-yl]-1,3-thiazol-3-ium [Compound 7771-0701]	very efficient in killing of S. aureus	bind to Lipid II				
Oc1ccc(C(c2ccc(O)cc2)c2ccc(F)cc2)cc1 [Compound 0251-0215, 4-[(4-fluorophenyl)(4-hydroxyphenyl)methyl]phenol]	very efficient in killing of S. aureus	bind to Lipid II				
OCc1ccc2c(c1)C1c3ccccc3C2c2ccccc21 [Compound 5100015, pentacyclo[6.6.6.0˜2,7˜.0˜9,14˜.0˜15,20˜]icosa-2,4,6,9,11,13,15,17,19-nonaen-4-ylmethanol]	very efficient in killing of S. aureus	bind to Lipid II				
CC[n+]1c(/C=C/C=C2C=C(/C=C/N(C)c3ccccc3)CC(C)(C)C/2)sc2ccccc21 [Compound 5107930, 2-[3-(5,5-dimethyl-3-{2-[methyl(phenyl)amino]vinyl}-2-cyclohexen-1-ylidene)-1-propen-1-yl]-3-ethyl-1,3-benzothiazol-3-ium iodide]	Effectively kills S. aureus at low concentrations		Displays relatively low cytotoxicity	Shows little bactericidal activity against E. coli		
HNP4: fourth human neutrophil α-defensin (VCSCRLVFCRRTELRVGNCLIGGVSFTYCCTRV; not fully specified; ends and bridges not checked; UniProt P12838 64-96, looked up)					most membrane active defensin in the panel of six	ineffective against Gram-positive bacteria
B1					little membrane activity even at high concentrations	potently bactericidal

Source: patent US8796323B2, “Defensin-like molecules as novel antimicrobial agents” (University of Maryland, Baltimore, priority 2010, dated 2014)
